From ChEMBL document CHEMBL1201862, “PubChem BioAssay data set” (2004) come the findings set out here.

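Values below derive from 48-hour exposures of cells grown in 96-well plates, with endpoints linearly interpolated between the two concentrations bracketing the appropriate inhibition level. GI50 = concentration required for 50% inhibition of growth.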 Activity calls are given as the source filed them. Cut-off read from the data, not from the text of the source: active = GI50 up to about 1.1 µM and inactive = higher.

Test systems include MDA-MB-435; LOX IMVI; OVCAR-5; NCI/ADR-RES; OVCAR-8; HL-60; SF-295; HCT-15; MDA-MB-231; KM12; SK-MEL-5; OVCAR-3; UACC-62; SF-268; MOLT-4; SNB-19; CAKI-1; NCI-H460; DU-145; SK-MEL-2.
What all share (test): NCI anticancer screen, dose series, 48 h

For the compound `COc1cc(-c2[o+]c3cc(O)cc(O)c3cc2O)cc(O)c1O`, the GI50 in the assay on MDA-MB-435 was 19.4 µM (inactive); with LOX IMVI, 55.8 µM (inactive); with OVCAR-5 it was > 100 µM (inactive); in the assay on NCI/ADR-RES it was > 100 µM (inactive); with OVCAR-8 it was > 100 µM (inactive); in the assay with HL-60, > 100 µM (inactive). In addition, the GI50 in the assay on SF-295 is > 100 µM (inactive); in the assay with HCT-15, more than 100 µM; with MDA-MB-231, > 100 µM (inactive); with KM12, > 100 µM (inactive); in the assay on SK-MEL-5 it was > 100 µM (inactive); in the assay with OVCAR-3 it was > 100 µM (inactive). Further, the GI50 in the assay with UACC-62, in the assay with SF-268, in the assay on MOLT-4, in the assay with SNB-19, in the assay on CAKI-1 and in the assay on NCI-H460 was > 100 µM (inactive) each time. Besides, the GI50 in the assay with DU-145 and with SK-MEL-2 was > 100 µM (inactive) in each case.

For the compound `COc1ccc(/C=C2\CCC(CN3CCOCC3)C2=O)cc1` (stereo not given), the GI50 was 2.05 µM (inactive) in the assay on MDA-MB-435; 4.65 µM (inactive) with LOX IMVI; 9.06 µM (inactive) with OVCAR-5; 2.62 µM (inactive) with NCI/ADR-RES; 2.74 µM (inactive) with OVCAR-8; 0.762 µM (active) with HL-60. For the same compound, the GI50 in the assay on SF-295 is 17.2 µM (inactive); in the assay with HCT-15, 2.39 µM; with MDA-MB-231, 2.08 µM (inactive); in the assay on KM12, 5.65 µM (inactive); in the assay with SK-MEL-5, 4.62 µM (inactive); with OVCAR-3, 3.28 µM (inactive). In addition, the GI50 was 11.8 µM (inactive) in the assay on UACC-62; 6.76 µM (inactive) with SF-268; 1.83 µM (inactive) with MOLT-4; 11.4 µM (inactive) with SNB-19; 1.99 µM (inactive) in the assay on CAKI-1; 17.8 µM (inactive) with NCI-H460. The GI50 in the assay on DU-145 is 2.23 µM (inactive); in the assay on SK-MEL-2, 3.78 µM (inactive).

Take `O=P(c1ccccc1)(c1ccccc1)N1O[C@@H](c2ccccc2)C=C[C@H]1c1ccccc1`: the GI50 is 4.2 µM (inactive) in the assay with MDA-MB-435; 7.19 µM (inactive) with LOX IMVI; 16 µM (inactive) in the assay with OVCAR-5; 7.13 µM (inactive) in the assay with NCI/ADR-RES; 12.8 µM (inactive) in the assay on OVCAR-8; 5.24 µM (inactive) with HL-60. Further, the GI50 in the assay with SF-295 was 11.6 µM (inactive); in the assay on HCT-15, 10 µM; in the assay with MDA-MB-231 it was 8.24 µM (inactive); in the assay on KM12, 14.5 µM (inactive); in the assay on SK-MEL-5, 11.4 µM (inactive); with OVCAR-3 it was 11.6 µM (inactive). The GI50 was 6.17 µM (inactive) in the assay with UACC-62; 12.4 µM (inactive) in the assay with SF-268; 5.32 µM (inactive) in the assay on MOLT-4; 14.8 µM (inactive) with SNB-19; 5.66 µM (inactive) in the assay with CAKI-1; 5.53 µM (inactive) in the assay with NCI-H460. In addition, the GI50 with DU-145 was 13 µM (inactive); with SK-MEL-2, 12 µM (inactive).

On to `CCCCC(=O)OC[n+]1ccc(-c2c(COC(=O)NC(C)C)c(COC(=O)NC(C)C)c3n2CCC3)cc1`, for which the GI50 in the assay on MDA-MB-435 was > 100 µM (inactive); in the assay with LOX IMVI, 47.9 µM (inactive); with OVCAR-5, > 100 µM (inactive); in the assay with NCI/ADR-RES, > 100 µM (inactive); in the assay with OVCAR-8, > 100 µM (inactive); in the assay on HL-60, 25.5 µM (inactive). The GI50 in the assay on SF-295 is > 76.2 µM (inactive); in the assay on HCT-15 it was more than 100 µM; in the assay with MDA-MB-231, > 67.6 µM (inactive); in the assay with KM12 it was > 100 µM (inactive); in the assay on SK-MEL-5, > 100 µM (inactive); in the assay with OVCAR-3 it was > 100 µM (inactive). Moreover, the GI50 in the assay on UACC-62 is 30.9 µM (inactive); in the assay on SF-268, 57.9 µM (inactive); in the assay on MOLT-4, 19.5 µM (inactive); with SNB-19 it was > 100 µM (inactive); in the assay on CAKI-1, 24.9 µM (inactive); in the assay on NCI-H460, 42.3 µM (inactive). Moreover, the GI50 in the assay with DU-145 was > 70.5 µM (inactive); in the assay on SK-MEL-2, > 100 µM (inactive).

Take `COC(OC)(c1ccccc1)C(I)I`: the GI50 with MDA-MB-435 was 4.37 µM (inactive); in the assay with LOX IMVI, 13.4 µM (inactive); in the assay with OVCAR-5, 16.2 µM (inactive); in the assay with NCI/ADR-RES, 16.3 µM (inactive); in the assay on OVCAR-8, 17.9 µM (inactive); in the assay with HL-60, 2 µM (inactive). Besides, the GI50 in the assay on SF-295 is 22.8 µM (inactive); in the assay on HCT-15 it was 6.61 µM; with MDA-MB-231, 18.9 µM (inactive); with KM12, 16.3 µM (inactive); with SK-MEL-5, 8.61 µM (inactive); in the assay on OVCAR-3, 15.3 µM (inactive). The GI50 with UACC-62 is 13.4 µM (inactive); in the assay with SF-268, 19.3 µM (inactive); with MOLT-4, 2.38 µM (inactive); in the assay with SNB-19, 35.3 µM (inactive); in the assay on CAKI-1 it was 11.8 µM (inactive); with NCI-H460, 16.7 µM (inactive). Besides, the GI50 with DU-145 was 24.5 µM (inactive); with SK-MEL-2, 13.8 µM (inactive).

Take `CCN(CC)CCCn1c(=O)c2cccnc2n2c3c(=O)n(C)c(=O)n(C)c3nc12`: the GI50 in the assay on MDA-MB-435, in the assay on LOX IMVI, in the assay on OVCAR-5, in the assay on NCI/ADR-RES, in the assay with OVCAR-8 and in the assay with HL-60 was > 100 µM (inactive) each time. Besides, the GI50 in the assay with SF-295 is > 100 µM (inactive); in the assay on HCT-15, more than 100 µM; with MDA-MB-231 it was > 100 µM (inactive); in the assay with KM12, > 100 µM (inactive); in the assay on SK-MEL-5 it was > 100 µM (inactive); in the assay on OVCAR-3, > 100 µM (inactive). Further, the GI50 in the assay with UACC-62 is > 100 µM (inactive); in the assay with SF-268, > 100 µM (inactive); in the assay on MOLT-4, > 100 µM (inactive); in the assay with SNB-19, > 100 µM (inactive); in the assay on CAKI-1 it was > 100 µM (inactive); in the assay with NCI-H460, 84.7 µM (inactive). Besides, the GI50 in the assay on DU-145 and with SK-MEL-2 was > 100 µM (inactive) throughout.

As for `CCOP1(=O)OCC2OC(n3cnc4c(N)ncnc43)C(O)C2O1.c1ccccc1` (stereo not given), the GI50 with MDA-MB-435, with LOX IMVI, in the assay with OVCAR-5, in the assay on NCI/ADR-RES, in the assay on OVCAR-8 and in the assay on HL-60 was > 100 µM (inactive) throughout. In addition, the GI50 in the assay on SF-295 is > 100 µM (inactive); in the assay on HCT-15, more than 100 µM; with MDA-MB-231, > 100 µM (inactive); with KM12 it was > 100 µM (inactive); in the assay with SK-MEL-5 it was > 100 µM (inactive); with OVCAR-3 it was > 100 µM (inactive). The GI50 in the assay with UACC-62, with SF-268, with MOLT-4, in the assay on SNB-19, with CAKI-1 and with NCI-H460 was > 100 µM (inactive) each time. Moreover, the GI50 in the assay on DU-145 and with SK-MEL-2 was > 100 µM (inactive) throughout.
